Experiment [1] deals with T1, NK1 (Homo sapiens, UniProt P14210). Put plainly: SPR steady-state binding to immobilized NK1 (Biacore T100). Details: made in house; host or cells: Pichia pastoris. As to the method: Binding constants of piperazine-like compounds and fragments were determined using a Biacore T100 instrument. NK1 was immobilized on a CM5 chip by amine coupling to a density of 6000 RU. Compounds were stored as 100 mM stock solutions in water and serial dilutions were prepared in the running buffer (PBS pH 7.4, 0.05% Tween 20). The compound solutions were injected onto the surface of the chip at a flow rate of 30 μL min^–1, contact time was 1 min and dissociation time 1 min. Sensorgrams were analysed using the Biacore T100 evaluation software and the binding constants determined.
T1 sequence (P14210 32-210 isoform P14210-6 limits assumed): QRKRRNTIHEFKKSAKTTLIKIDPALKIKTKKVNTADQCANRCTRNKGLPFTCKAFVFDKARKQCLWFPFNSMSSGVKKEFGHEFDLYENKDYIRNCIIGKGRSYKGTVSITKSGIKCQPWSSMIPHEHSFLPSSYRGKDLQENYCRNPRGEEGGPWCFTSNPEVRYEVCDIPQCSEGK
For orientation: Surface plasmon resonance follows binding to a sensor surface in real time, without labels.

Experiment [2] has as its target T1, NK1. Put plainly: SPR fragment library screening against NK1. In kind it is binding. Details: made in house; host or cells: Pichia pastoris. The following applies: for Ranking order: based on fragment screening, rank among the 71 NK1 hits (ESI Tables S3-S7); for SPR response: normalised relative value against NK1. As to the method:
Supplementary Materials and Methods
Fragment library screening and data analysis
Met567 (soluble truncated f ragment of the MET ectodomain, residues 25- 567), NK1 and t he SPH domain were immobilized on CM5 chips by amine coupling. NK1 was diluted into 10 m M phosphate pH 7.0 and the SPH domain into 10 mM acetate pH 5.5 to a final concentration of 2.5 μM and 1 μM, respectively, for coupling. The immobilization wizard within the Biacore T100 software was set to “aim for immobiliz ed level” of 8000 RU to achieve complete saturation of the chip surface.
W ith minor deviations, the procedure and conditions outlined below were used f or a ll screening s of an in-house fragment library of 1338 members against individual target proteins. The running buffer was PBS pH 7.4, 0.05% Tween 20, 0.25% DMSO (1% DMSO for Met567). Fragments were stored as 100 mM stock solutions in DMSO. Prior to screening, fragment samples were diluted to 500 μM (1 mM f or Met567) in running buffer.
Screening was performed in 96- we ll plates at a flow rate of 30 μl min-1 with 1 min sample injection f ollowed by dissociation f or 1 min and surf ace regeneration using 1 M NaCl f or 30 […]
post-regeneration baseline exceeded the pre- sample baseline by more than 10 RU, a second regeneration cycle with 50% ethylene glycol was used. In order to be able to correct for small variations in DMSO concentration between samples, eight solvent samples ranging from 0.012 to 1.5% DMSO were injected every 40th cycle. To monitor the binding capacity of the NK1, SPH and Met567 surfaces throughout the screening, injections of 500 μM HEPES (NK1), 0.25 μM Met567 (SPH) and 0.2 μM NK1 and 1% DMSO (Met567) were carried out every 40th cycle. The flow cell temperature was 25°C. NK1 and the SPH domain were immobilized on the same chip (channels 2 and 3 respectively) and were theref ore screened in parallel. Met567 was screened separately and results are published in an accompanying paper (W in t er et al. 2015, in revision).
For data analysis, fir st, all responses were reference and solvent corrected. 1 Next, equilibrium binding for every fragment was determined and hits established by applying several filters: sensorgram shape, upper and lower threshold. Typical sensorgrams from fragment screening show “square curves” in SPR due to the fast on and off rates and fragments not showing this response were discarded from further analysis. Binding levels are represented as response units (RU) but the SPR signal is a convolution of multiple parameters including target coupling density, target -binding activity, target molecular weight and molecular weight of each injected fragment. To be able to identif y hits accurately and to be able to compare responses between different plates and targets, data were normalised against these factors. First the theoretical maximum response for each fragment was calculated using equation 1:
RRmmm = CCCCCCCC ddCdCdd× MMffmCmdCd (Equation 1)
This RUmax value diff ers for each protein target because it depends on the molecular weight of the protein and the amount of protein immobilized on the chip (coupling density). The RUmax was then used to calculate the normalised relative SPR response:
NNNNNNNNNN NNNNr NrN SSR NNNrNrNN = RRcppppcppc× 100% (Equation 2) […]
fragment should cause upon binding. 100% response would be 1:1 binding wit h levels above 100% implying over-stoichiometric binding. […]
Fragment library screening to identify small molecule binders

[3] abbreviates: steady-state binding constant from SPR, MB605-related compounds (Table 4), read-out: KD.
Where [4] appears, read: fragments 500 μM (ESI Tables S3-S7).
Setting [5] is: initial fragment screening, fragments 500 μM (Table 3).
The mark [6] stands for this setting: steady-state binding constant from SPR, fragment hits (Table 3, text), read-out: KD.
Where [7] appears, read: steady-state binding constant from SPR (ESI Tables S3-S7), read-out: KD.

Molecules are shown by their SMILES. Read-outs that look alike come from different tables or passages of the source.

Broadly, the Kd is a measure of binding affinity in units of concentration. For the compound `O=C(O)CCc1ccccc1` [501-520-0, hydrocinnamic acid], the Kd in experiment [1] (setting [3]) turned out to be 2.2 ± 0.9 mM.
Turning to `O=P(O)(O)CCc1ccccc1` [4672-30-4, 2-phenylethyl phosphonic acid], in experiment [1] (setting [3]), the Kd amounted to 2.2 ± 0.4 mM.
Regarding `O=C(O)CCc1cccs1` [5928-51-8, 2-thiophenepropanoic acid], the Kd in experiment [1] (setting [3]) was determined as 1.1 ± 0.3 mM.
`c1ccc2[nH]ncc2c1` [AT0381] had a Kd in experiment [1] (KD) of 0.74 ± 0.06 mM. For the same compound, the Ranking order in experiment [2] is 44. Also, the SPR response in experiment [2] (setting [4]) and in experiment [2] (setting [5]) was 53% in each case.
The compound `O=C(O)c1ccc2[nH]ncc2c1` [AT0541] had a Ranking order in experiment [2] of 38. The same compound yielded an SPR response in experiment [2] (setting [4]) of 56%.
In the case of `Nc1ncccn1` [CA023], in experiment [1] (setting [6]), the dissociation constant Kd turned out to be 0.77 ± 0.06 mM. In addition, the Ranking order in experiment [2] is recorded as 46. Also, the SPR response in experiment [2] (setting [4]) and in experiment [2] (setting [5]) was 52% each time.
For `CC1(C(=O)O)CC2C=CC1C2` (stereo not shown) [MB385], in experiment [2], the Ranking order is 42. In experiment [2] (setting [4]), the SPR response was determined as 54%.
As to `Cc1cccc(CO)n1` [MB389], the Kd in experiment [1] (setting [7]) came out at 4.32 mM. The compound also returned a Ranking order in experiment [2] of 23. In addition, in experiment [2] (setting [4]), the SPR response was 72%.
The like results for `Nc1ccc(F)cc1F` [MB396] were, in that order, 1.1 mM, 18 and 83%.
As to `Cc1cc(N)no1` [MB397], the Ranking order in experiment [2] is 20. The compound further displayed an SPR response in experiment [2] (setting [4]) of 81%.
Consider `Nc1ccncc1` [MB404], for which, in experiment [1] (setting [7]), the Kd came out at 2.8 mM. Also, the Ranking order in experiment [2] came out at 5. Besides, in experiment [2] (setting [4]), the SPR response is listed as 118%.
The compound `OC12CC3CC(CC(C3)C1)C2` [MB405] came in with a Ranking order in experiment [2] of 40. The same compound gave an SPR response in experiment [2] (setting [4]) of 56%.
As to `Nc1cccc(OC(F)(F)F)c1` [MB406], the Ranking order in experiment [2] came to 54. Moreover, in experiment [2] (setting [4]), the SPR response is 42%.
On the same counts, the results for `Nc1cccc(S(N)(=O)=O)c1` [MB409] are 59 and 36%.
In the case of `NC(=O)c1ccc(-c2csnn2)cc1` [MB414], the Ranking order in experiment [2] turned out to be 50. Moreover, in experiment [2] (setting [4]), the SPR response is recorded as 50%.
`CCOC(=O)c1cnc2n(c1=O)CCS2` [MB415] displayed a Ranking order in experiment [2] of 58. Also, the SPR response in experiment [2] (setting [4]) is 37%.
As for `O=C(O)c1coc2c1C(=O)CCC2` [MB417], in experiment [1] (setting [6]), the Kd was 0.42 ± 0.04 mM. For the same compound, the Ranking order in experiment [2] is given as 17. Moreover, the SPR response in experiment [2] (setting [4]) and in experiment [2] (setting [5]) was 87% each time.
Consider `Cc1nc(C(C)(C)C)cs1` [MB887], for which the Ranking order in experiment [2] was determined as 32. In addition, the SPR response in experiment [2] (setting [4]) stood at 62%.
In the case of `Cc1nn(C)c(C)c1N` [MB893], in experiment [1] (setting [7]), the Kd was 1.5 mM. Further, the Ranking order in experiment [2] is 36. In experiment [2] (setting [4]), the SPR response is 59%.
As to `COc1cccc(OC)c1SC` [MB894], the Ranking order in experiment [2] is given as 51. The compound further showed an SPR response in experiment [2] (setting [4]) of 49%.
As to `Cc1nc(CC(=O)O)cs1` [MB895], the dissociation constant (Kd) in experiment [1] (setting [6]) was 0.43 ± 0.05 mM. In addition, in experiment [2], the Ranking order is listed as 45. Further, the SPR response in experiment [2] (setting [4]) and in experiment [2] (setting [5]) was 53% each time.
In experiment [2], `O=C(O)c1ccccc1C(=O)c1ccc(F)cc1` [MB900] had a Ranking order of 69. Besides, in experiment [2] (setting [4]), the SPR response is on record as 28%.
In turn, `COC(=O)c1sc(C(C)(C)C)cc1N` [MB914] came in with a Ranking order in experiment [2] of 63. For the same compound, the SPR response in experiment [2] (setting [4]) was 34%.
For `N#Cc1ccsc1N` [MB915], the Kd in experiment [1] (setting [7]) is 1.6 mM. Besides, the Ranking order in experiment [2] came out at 24. Also, in experiment [2] (setting [4]), the SPR response came out at 71%.
In experiment [2], `COC(=O)c1scc(C)c1Cl` [MB916] gave a Ranking order of 64. In addition, in experiment [2] (setting [4]), the SPR response stood at 34%.
The compound `Cc1csc(C(=O)O)c1` [MB921] registered a Ranking order in experiment [2] of 52. The SPR response in experiment [2] (setting [4]) is listed as 49%.
`Cn1ccc(C(F)(F)F)n1` [MB926] showed a Ranking order in experiment [2] of 66. Further, in experiment [2] (setting [4]), the SPR response was 30%.
The like results for `N#CCCNCC1CCCO1` (stereo not shown) [MB975] were, in that order, 65 and 33%.
The like results for `Cc1ncsc1C(=O)O` [MB996] were, in that order, 56 and 38%.
On the same counts, the results for `CC1CCN(C(=O)C2CCCCN2)CC1` (stereo not shown) [MB1015] are 60 and 35%.
The compound `CCC1CCC(N)CC1` (stereo not shown) [MB1016] returned a Ranking order in experiment [2] of 61. In addition, the SPR response in experiment [2] (setting [4]) was found to be 35%.
On the same counts, the results for `CC(C)(N)CN1CCCC1` [MB1017] are 71 and 26%.
`CN(C)C(=O)c1ccc2nccnc2c1` [MB1058] came in with a Ranking order in experiment [2] of 29. Moreover, in experiment [2] (setting [4]), the SPR response was determined as 63%.
Turning to `CN(C)C(=O)C1CCOCC1` [MB1065], in experiment [2], the Ranking order is recorded as 57. The compound also showed an SPR response in experiment [2] (setting [4]) of 38%.
Compound `O=C(C1CCOCC1)N1CCCCC1` [MB1066] showed a Ranking order in experiment [2] of 62. Besides, the SPR response in experiment [2] (setting [4]) was determined as 34%.
On the same counts, the results for `O=C(C1CCCCO1)N1CCCC1` (stereo not shown) [MB1067] are 68 and 28%.
The like results for `Nc1ccc(OC(F)(F)F)cc1` [MB1100] were, in that order, 70 and 27%.
The like results for `O=C(O)C1CCNCC1` [MB1129] were, in that order, 67 and 30%.
The compound `Cc1noc(N)c1C` [MB1136] returned a Ranking order in experiment [2] of 55. Besides, in experiment [2] (setting [4]), the SPR response is reported as 39%.
On the same counts, the results for `NC(=O)Cc1ccc(O)cc1` [MB1174] are 53 and 43%.
`CSc1ccc(C(=O)O)s1` [MB1217]: the Ranking order in experiment [2] is 49. The compound further yielded an SPR response in experiment [2] (setting [4]) of 50%.
The like results for `N#CCOc1cccc(C(F)(F)F)c1` [MB1251] were, in that order, 27 and 66%.
The like results for `CC(=O)c1ccc(OC(F)(F)F)cc1` [MB1291] were, in that order, 26 and 68%.
On the same counts, the results for `COC(=O)c1ccccc1OC(F)(F)F` [MB1292] are 30 and 63%.
For the compound `CCc1cccc(C(C)=O)c1` [MB1300], in experiment [2], the Ranking order stood at 14. In experiment [2] (setting [4]), this compound registered an SPR response of 93%.
Consider `COC(=O)c1ccc(F)cc1Cl` [MB1301], for which, in experiment [2], the Ranking order amounted to 25. The compound further gave an SPR response in experiment [2] (setting [4]) of 70%.
`COC(=O)c1ccc(C)c(Cl)c1` [MB1307] showed a Ranking order in experiment [2] of 31. Besides, the SPR response in experiment [2] (setting [4]) stood at 62%.
`COC(=O)CSc1ccccc1` [MB1308] returned a Ranking order in experiment [2] of 34. The compound further had an SPR response in experiment [2] (setting [4]) of 60%.
In experiment [2], `CC(=O)NCc1cccnc1` [MB1317] registered a Ranking order of 35. In experiment [2] (setting [4]), this compound displayed an SPR response of 60%.
On the same counts, the results for `NC(=O)Cc1ccc(F)cc1Cl` [MB1321] are 28 and 65%.
As to `O=C(O)CCc1ccc(-c2ccccc2F)o1` [T5445870], the Kd in experiment [1] (setting [3]) amounted to 2.1 ± 0.3 mM.
`O=C(O)CCc1cc2ccccc2o1` [T5480685]: in experiment [1] (setting [3]), the Kd turned out to be 0.7 ± 0.2 mM.

Values taken from paper PMC6054100, “Exploring the chemical space of the lysine-binding pocket of the first kringle domain of hepatocyte growth factor/scatter factor (HGF/SF) yields a new class of inhibitors of HGF/SF-MET binding” (Chemical Science, 2015).
